Experiment [1] has as its system SH-SY5Y cells. Nature of the experiment: Neuroprotection against rotenone/oligomycin A, pre-incubation model, MTT. Format: cell-based. The following applies: Homo sapiens, compound 1 μM pre-incubation 24 h, then Rot/Olig (30/10 μM); for viability at 1 µM: read-out: % Survival. Here is the method:
(§1) SH-SY5Y cells [ECACC 94030304], in 5 to 16 passage after defreezing were maintained in Eagle media modified by Dulbecco (DMEM) containing 15 non-essential amino acids and supplemented with 10% fetal bovine serum, 1 mM glutamine, 50 units/mL penicillin/streptomycin (obtained from GIBCO, Madrid, Spain). Cells were seeded in flasks containing supplemented media and were maintained in an incubator at 37° C. and 5% CO2. 1:4 passes were performed twice per week. For the experiments, cells were seeded in 24 well-plates at a density of 2×10^5 cells/well, or in 96 well-plates at a density of 8×10^4 cells/well. For cytotoxicity experiments, cells were treated with the compounds before confluence with DMEM media supplemented with fetal bovine serum 1%.
(§2) In order to assess cellular viability, we measured the metabolic reduction of 3-(4,5-Dimethylthiazol-2-yl)-2,5 diphenyltetrazolium bromide (MTT). MTT is an indirect assay to measure cellular viability. It is a colorimetric method based on the reduction of 3-(4,5-Dimethylthiazol-2-yl)-2,5 diphenyltetrazolium. This process is performed by the mitochondrial enzyme succinate-dehydrogenase present in metabolic active cells. Thus, the water-soluble yellow MTT (tetrazolium salt) is transformed into a insoluble purple compound (formazan). Quantity of living cells is directly proportional to the quantity of formazan (Mosmann, 1983, J Immunol Methods, 65: 55-63). […] Therefore, with this assay we can measure cellular surviving and proliferation and also, we can determine the cytotoxicity of potential neuroprotective compounds. In order to assess cellular viability in SH-SY5Y cell line, we added 30 μl/well of MTT (5 mg/mL) and after 2 h, medium was carefully removed to avoid losing the formazan and was diluted in 300 μL of DMSO. Afterwards, samples were transferred to a 96 well-plate and the absorbance was measured at 570 nm using a absorbance/fluorescence reader FluoStar optima®. Every MTT assay was performed in triplicates. Absorbance values obtained with the toxic alone were subtracted to the absorbance values obtained in basal conditions (without treatment). That result was considered as the 100% of cell death and the values obtained with the compounds in the presence of the toxic stimulus were normalized as percentages of that value. For determining the surviving percentage, those percentages of cell death were subtracted to 100.
(§3) Neuroprotection elicited by the compounds of the invention 1-16: The activation of Nrf2-ARE pathway by different compounds exerts neuroprotective effects against toxic models based on oxidative stress via the expression of cytoprotective genes. […] We evaluated the neuroprotective potential of the compounds using the human neuroblastoma cell line using the following cytotoxicity models: 1) oxidative stress induced by rotenone+oligomycin, both blockers of the electron transport chain as previously described (Halliwell, 1992, J Neurochem, 59: 1609-23, Newhouse y col., 2004, Toxicol Sci, 79: 137-46), and 2) cytotoxicity induced by the electrophilic compound Menadione. This compound produces oxidative stress after being metabolized by microsomal enzymes in the cell which produces hydroxyl radical and oxygen reactive species. As a consequence, there is a depolarization of mitochondrial membrane generating a release of apoptotic factors such as cytochrome c, and activating the caspase cascade (Loor y col., 2010, Free Radic Biol Med, 49: 1925-36, Chuang y col., 2002, Cancer Res, 62: 6246-54). Caspase 3 activation can produce the lysis of proteins and induce DNA fragmentation, leading to cell death (Gerasimenko y col., 2002, J Cell Sci, 115: 485-97).
For this study we propose a protocol in which the cells are pre-incubated with each of the derivatives at 1 μM for 24 h. After the pre-incubation period, the medium was removed and replaced by culture medium with the rotenone/oligomycin-A (30 μM and 10 μM, respectively) toxic mixture. […]

Experiment [2] is described as follows: Oxygen radical absorbance capacity (ORAC), free radical scavenger capacity. The following applies: fluorescein/AAPH, pH 7.4, trolox = 1. Here is the method:
In order to study the potential antioxidant effect of the compounds of the invention, we performed an oxygen radical absorbance capacity (ORAC) experiment.
For studying the free radical scavenger capacity, we measured the degree peroxide radical inhibition. Thus, scavenger capacity is measured as trolox equivalents and includes the disappearance of free radicals over time and the decrease of oxidative damage at the end of the experiment. The protocol used is based in the protocol developed by Ou and col. (Ou y col., 2001, J Agric Food Chem, 49: 4619-26) partially modified by Dávalos and col. (Davalos y col., 2004, J Agric Food Chem, 52: 48-54). The reaction was performed in phosphate tampon 75 mM (pH 7.4), with a final volume of 200 μL. 150 μL of fluorescein (final concentration of 70 nM) with 25 μL the compound of study at the desired concentration in triplicates, using surface transparent 96 well black plates for measuring fluorescence.
The mixture was pre-incubated during 15 min at 37° C. and, afterwards, 25 μL of a solution containing 2,2′-Azobis(2-amidinopropane) dihydrochloride (AAPH) (final concentration; 12 mM) were rapidly added. Fluorescence was immediately measured using a plate reader fluostar optima, using the filters of emission and excitation of […], respectively. Fluorescence intensity was measured during 90 min. Each compound was measured at 6 different concentrations. In the assay, fluorescein+AAPH in phosphate tampon was added as a blank and a calibration curve was performed using Trolox (1-8 μM). Every variable was prepared in duplicates and at least three independent experiments were performed for each compound. The curves of the compounds (F.I.—time) were normalized respect to the curve of the blank for each experiment and area under the curve (AUC) of the decreasing in fluorescence was calculated. AUC value of each compound was calculated subtracting the AUC of the blank. Regression curves between AUC and concentration of the compound were calculated for each of the samples. ORAC values were expressed as trolox equivalents with respect to the calibration curve of each assay, where the trolox value was considered 1.

For experiment [3], the system named is SH-SY5Y cells. Nature of the experiment: Neuroprotection against oxidative stress induced by menadione, pre- and co-incubation, MTT. The following applies: Homo sapiens, 24 h, compound 1 μM pre- and co-incubation, Menadione (8 mM); for viability at 1 µM: read-out: % Survival. The format is cell-based. Here is the method:
as §1, §2, §3
To further confirm the neuroprotective capacity in another model of oxidative stress, menadione was selected as toxic stimulus. […]

Experimental findings from US20180105492A1, “COMPOUNDS DERIVED FROM 3-ALKYLAMINE-1H-INDOLYL ACRYLATE AND THEIR USE IN THE TREATMENT OF NEURODEGENERATIVE DISEASES” (FUNDACION PARA LA INVESTIGACION BIOMEDICA DEL HOSPITAL …, priority 2014, published 2018) are described below.

As for `CC(=O)NCCc1c[nH]c2ccc(OC(=O)/C=C/c3ccc(Cl)cc3)cc12` [Compound 11, 3-(2-acetamidoethyl)-1H-indol-5-yl (E)-3-(4-chlorophenyl)acrylate], in the experiment with SH-SY5Y cells [1], the percent protection against toxin-induced cell death at 1 µM came out at 33.5% and the viability at 1 µM is 73.2 ± 3.12%. For the same compound, the “ORAC (Trolox eq.)” value in experiment [2] came out at 2.91 ± 0.32 Trolox eq. In the experiment on SH-SY5Y cells [3], the % protection against menadione toxicity at 1 µM was determined as 57% and the viability at 1 µM amounted to 85.7 ± 2.93%.

Turning to `C/C=C/C(=O)Oc1ccc2[nH]cc(CCNC(C)=O)c2c1` [Compound 1, 3-(2-acetamidoethyl)-1H-indol-5-yl (E)-2-butenoate], in the experiment with SH-SY5Y cells [1], the percent protection against toxin-induced cell death at 1 µM was determined as 28.5% and the viability at 1 µM is 70.4 ± 4.03%. In experiment [2], the “ORAC (Trolox eq.)” value was determined as 8.64 ± 1.98 Trolox eq. For the same compound, in the experiment on SH-SY5Y cells [3], the % protection against menadione toxicity at 1 µM stood at 63.3% and the viability at 1 µM amounted to 87.7 ± 1.74%.

`COc1cccc(/C=C/C(=O)Oc2ccc3[nH]cc(CCNC(C)=O)c3c2)c1` [Compound 5, 3-(2-acetamidoethyl)-1H-indol-5-yl (E)-3-(3-methoxyphenyl)acrylate]: in the experiment on SH-SY5Y cells [1], the percent protection against toxin-induced cell death at 1 µM was 27.1% and the viability at 1 µM amounted to 70.2 ± 2.42%. For the same compound, the “ORAC (Trolox eq.)” value in experiment [2] is 3.52 ± 0.27 Trolox eq. Moreover, in the experiment on SH-SY5Y cells [3], the % protection against menadione toxicity at 1 µM is 38.1% and the viability at 1 µM came to 76 ± 3.31%.

On to `COc1ccccc1/C=C/C(=O)Oc1ccc2[nH]cc(CCNC(C)=O)c2c1` [Compound 4, 3-(2-acetamidoethyl)-1H-indol-5-yl (E)-3-(2-methoxyphenyl)acrylate], for which, in the experiment with SH-SY5Y cells [1], the percent protection against toxin-induced cell death at 1 µM turned out to be 19% and the viability at 1 µM stood at 67.1 ± 2.61%. For the same compound, in experiment [2], the “ORAC (Trolox eq.)” value was determined as 3.02 ± 0.20 Trolox eq. In the experiment on SH-SY5Y cells [3], the % protection against menadione toxicity at 1 µM amounted to 67.1% and the viability at 1 µM came to 90.5 ± 1.97%.

As to `CC(=O)NCCc1c[nH]c2ccc(OC(=O)/C=C/c3ccc(Cl)c(Cl)c3)cc12` [Compound 12, 3-(2-acetamidoethyl)-1H-indol-5-yl (E)-3-(3,4-dichlorophenyl)acrylate], in the experiment with SH-SY5Y cells [1], the percent protection against toxin-induced cell death at 1 µM was 25.3% and the viability at 1 µM was found to be 70.1 ± 4.35%. Further, in experiment [2], the “ORAC (Trolox eq.)” value came out at 5.37 ± 0.38 Trolox eq. Moreover, in the experiment with SH-SY5Y cells [3], the % protection against menadione toxicity at 1 µM was found to be 59.3% and the viability at 1 µM stood at 86.5 ± 3.04%.

For the compound `CC(=O)NCCc1c[nH]c2ccc(OC(=O)/C=C/c3ccc(C(F)(F)F)cc3)cc12` [Compound 15, 3-(2-acetamidoethyl)-1H-indol-5-yl (E)-3-(4-(trifluoromethyl)phenyl)acrylate], in the experiment with SH-SY5Y cells [1], the percent protection against toxin-induced cell death at 1 µM is 37.5% and the viability at 1 µM was 73.4 ± 3.31%. Moreover, in experiment [2], the “ORAC (Trolox eq.)” value is given as 3.97 ± 0.38 Trolox eq. Besides, in the experiment with SH-SY5Y cells [3], the % protection against menadione toxicity at 1 µM was 31.6% and the viability at 1 µM is 73.2 ± 3.43%.

As for `CC(=O)NCCc1c[nH]c2ccc(OC(=O)/C=C/c3ccccc3C(F)(F)F)cc12` [Compound 13, 3-(2-acetamidoethyl)-1H-indol-5-yl (E)-3-(2-(trifluoromethyl)phenyl)acrylate], in the experiment on SH-SY5Y cells [1], the percent protection against toxin-induced cell death at 1 µM stood at 22.1% and the viability at 1 µM turned out to be 67 ± 3.01%. In experiment [2], the “ORAC (Trolox eq.)” value is given as 3.33 ± 0.28 Trolox eq. In the experiment on SH-SY5Y cells [3], the % protection against menadione toxicity at 1 µM stood at 36.2% and the viability at 1 µM stood at 74.9 ± 2.19%.

For the compound `COc1ccc(/C=C/C(=O)Oc2ccc3[nH]cc(CCNC(C)=O)c3c2)cc1` [Compound 6, 3-(2-acetamidoethyl)-1H-indol-5-yl (E)-3-(4-methoxyphenyl)acrylate], in the experiment with SH-SY5Y cells [1], the percent protection against toxin-induced cell death at 1 µM was found to be 29.8% and the viability at 1 µM was found to be 70 ± 3.04%. For the same compound, the “ORAC (Trolox eq.)” value in experiment [2] was 3.51 ± 0.27 Trolox eq. Further, in the experiment with SH-SY5Y cells [3], the % protection against menadione toxicity at 1 µM was 35.8% and the viability at 1 µM came to 74.7 ± 2.91%.

Regarding `CC(=O)NCCc1c[nH]c2ccc(OC(=O)/C=C/c3ccc(C)cc3)cc12` [Compound 3, 3-(2-acetamidoethyl)-1H-indol-5-yl (E)-3-(4-methylphenyl)acrylate], in the experiment with SH-SY5Y cells [1], the percent protection against toxin-induced cell death at 1 µM was found to be 20.5% and the viability at 1 µM came out at 67 ± 3.21%. Also, the “ORAC (Trolox eq.)” value in experiment [2] came out at 4.44 ± 0.51 Trolox eq. In the experiment on SH-SY5Y cells [3], the % protection against menadione toxicity at 1 µM came out at 25% and the viability at 1 µM was 71.4 ± 2.43%.

Consider `CC(=O)NCCc1c[nH]c2ccc(OC(=O)/C=C/c3ccc(O)cc3)cc12` [Compound 7, 3-(2-acetamidoethyl)-1H-indol-5-yl (E)-3-(4-hydroxyphenyl)acrylate], for which, in the experiment with SH-SY5Y cells [1], the percent protection against toxin-induced cell death at 1 µM amounted to 32.5% and the viability at 1 µM was 71.5 ± 4.92%. The “ORAC (Trolox eq.)” value in experiment [2] is 9.21 ± 0.81 Trolox eq. Further, in the experiment with SH-SY5Y cells [3], the % protection against menadione toxicity at 1 µM came out at 61.8% and the viability at 1 µM stood at 86.8 ± 3.24%.

As for `COc1ccc2[nH]cc(CCNC(C)=O)c2c1` [Melatonin, reference compound], in the experiment on SH-SY5Y cells [1], the percent protection against toxin-induced cell death at 1 µM is 31.6% and the viability at 1 µM turned out to be 71.8 ± 2.81%. Moreover, in the experiment on SH-SY5Y cells [3], the % protection against menadione toxicity at 1 µM stood at 37.4% and the viability at 1 µM came out at 72.9 ± 5.24%.

As for `CC(=O)NCCc1c[nH]c2ccc(OC(=O)/C=C/c3ccc([N+](=O)[O-])cc3)cc12` [Compound 16, 3-(2-acetamidoethyl)-1H-indol-5-yl (E)-3-(4-nitrophenyl)acrylate], in the experiment with SH-SY5Y cells [1], the percent protection against toxin-induced cell death at 1 µM was 23% and the viability at 1 µM stood at 68.5 ± 2.88%. Also, the “ORAC (Trolox eq.)” value in experiment [2] stood at 4.12 ± 0.49 Trolox eq. For the same compound, in the experiment on SH-SY5Y cells [3], the % protection against menadione toxicity at 1 µM amounted to 53.6% and the viability at 1 µM was 84.3 ± 2.15%.

Turning to `CC(=O)NCCc1c[nH]c2ccc(OC(=O)/C=C/c3ccccc3)cc12` [Compound 2, 3-(2-acetamidoethyl)-1H-indol-5-yl cinnamate], in the experiment on SH-SY5Y cells [1], the percent protection against toxin-induced cell death at 1 µM was determined as 34.7% and the viability at 1 µM came to 72.7 ± 3.59%. Besides, in experiment [2], the “ORAC (Trolox eq.)” value is listed as 4.30 ± 0.50 Trolox eq. In the experiment on SH-SY5Y cells [3], the % protection against menadione toxicity at 1 µM was found to be 32.5% and the viability at 1 µM was 74 ± 3.18%.
